Laboratory results reported in US4910195A, “Dihydropyridine derivatives” (Green Cross Corporation, priority 1986, dated 1990).

Assay: Hypotensive effect, systolic pressure by indirect tail-cuff method without anesthesia, oral administration
Format: in vivo, male rats, 10- to 11-week-old
Conditions: rats, 10 mg/kg, suspended in 10% HCO-60
Experimental: An experiment was conducted to investigate the hypotensive effects of the dihydropyridine derivatives (I) and acid addition salts thereof on 10- to 11-week-old male rats (3 to 5 animals per group).
For blood pressure determination, systolic pressure was measured without anesthesia by an indirect tail-cuff method using a sphygmomanometer (PE-300, Narco Bio-System).
Each of the test compounds was suspended in 10% HCO-60 (polyoxyethylated castor oil produced by Nikko Chemicals K.K.) and administered orally to the animals in a dose of 10 mg/kg. Blood pressure measurements were conducted at predetermined time intervals.

## COC(=O)C1=C(C)NC(C)=C(C(=O)OCCN(C)Cc2ccccc2)C1c1cccc([N+](=O)[O-])c1 (centres unmarked) [nicardipine]
  50% recovery time (time required for the reduced blood pressure to return to half the maximal reduction): 3.1 h
  maximum blood pressure fall: 20%
